Test results: patent US9150632B2 (Indiana University Research and Technology Corporation, priority 2009, dated 2015)
Non-standard residues stand in square brackets, D forms with d. Residues, ends and D or L forms follow the SMILES beside them. Dab = NCC[C@H](N)C(=O)O; Aib = CC(C)(N)C(=O)O

The molecules below were run against T1, glucagon receptor (Homo sapiens, UniProt P47871) (assay: Functional assay-cAMP synthesis, luciferase reporter in HEK293 cells, glucagon receptor). Conditions: Table 26, glucagon receptor.
T1 construct: expressed in transfected cells; host or cells: HEK293
T1 sequence (P47871 26-477): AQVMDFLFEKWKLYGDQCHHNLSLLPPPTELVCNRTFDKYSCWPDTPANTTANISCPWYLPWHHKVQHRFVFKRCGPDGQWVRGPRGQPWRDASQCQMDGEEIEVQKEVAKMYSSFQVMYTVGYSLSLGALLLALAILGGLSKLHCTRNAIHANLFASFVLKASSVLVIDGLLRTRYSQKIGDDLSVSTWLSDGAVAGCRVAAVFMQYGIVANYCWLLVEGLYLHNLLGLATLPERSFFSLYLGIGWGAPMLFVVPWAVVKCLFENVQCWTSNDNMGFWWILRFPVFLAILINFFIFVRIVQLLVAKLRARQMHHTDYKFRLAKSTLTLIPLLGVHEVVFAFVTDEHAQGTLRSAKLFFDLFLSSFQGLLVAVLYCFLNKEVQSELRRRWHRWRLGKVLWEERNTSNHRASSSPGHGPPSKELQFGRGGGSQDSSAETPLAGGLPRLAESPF
Type: cell-based
Parameters: % activity: concentration or dose not given beside the values

Compound	% activity [%]
CCCC[C@H](NC(=O)[C@H](CC(C)C)NC(=O)[C@H](Cc1c[nH]c2ccccc12)NC(=O)[C@H](C)NC(=O)[C@@H](NC(=O)[C@H](Cc1ccccc1)NC(=O)[C@H](CCC(=O)O)NC(=O)[C@H](C)NC(=O)[C@H](C)NC(=O)[C@H](CCCNC(=N)N)NC(=O)[C@H](CCCNC(=N)N)NC(=O)[C@@H](NC(=O)[C@H](CC(=O)O)NC(=O)[C@H](CC(C)C)NC(=O)[C@H](Cc1ccc(O)cc1)NC(=O)[C@H](CCCCN)NC(=O)[C@H](CO)NC(=O)[C@H](Cc1ccc(O)cc1)NC(=O)[C@H](CC(=O)O)NC(=O)[C@H](CO)NC(=O)[C@@H](NC(=O)[C@H](Cc1ccccc1)NC(=O)[C@@H](NC(=O)CNC(=O)[C@H](CCC(N)=O)NC(=O)[C@H](CO)NC(=O)[C@@H](N)Cc1c[nH]cn1)[C@@H](C)O)[C@@H](C)O)[C@@H](C)O)C(C)C)C(=O)N[C@@H](CC(=O)O)C(=O)N[C@@H](CCC(=O)O)C(=O)O [SEQ ID NO: 593]	25
CCCC[C@H](NC(=O)[C@H](CC(C)C)NC(=O)[C@H](Cc1c[nH]c2ccccc12)NC(=O)[C@H](C)NC(=O)[C@@H](NC(=O)[C@H](Cc1ccccc1)NC(=O)[C@H](CCC(=O)O)NC(=O)[C@H](C)NC(=O)[C@H](C)NC(=O)[C@H](CCCNC(=N)N)NC(=O)[C@H](CCCNC(=N)N)NC(=O)[C@@H](NC(=O)[C@H](CC(=O)O)NC(=O)[C@H](CC(C)C)NC(=O)[C@H](Cc1ccc(O)cc1)NC(=O)[C@H](CCCCN)NC(=O)[C@H](CO)NC(=O)[C@H](Cc1ccc(O)cc1)NC(=O)[C@H](CC(=O)O)NC(=O)[C@H](CO)NC(=O)[C@@H](NC(=O)[C@H](Cc1ccccc1)NC(=O)[C@@H](NC(=O)CNC(=O)[C@H](CSCNC(C)=O)NC(=O)[C@H](CO)NC(=O)[C@@H](N)Cc1c[nH]cn1)[C@@H](C)O)[C@@H](C)O)[C@@H](C)O)C(C)C)C(=O)N[C@@H](CC(=O)O)C(=O)N[C@@H](CCC(=O)O)C(=O)O [SEQ ID NO: 594]	33
CCCC[C@H](NC(=O)[C@H](CC(C)C)NC(=O)[C@H](Cc1c[nH]c2ccccc12)NC(=O)[C@H](C)NC(=O)[C@@H](NC(=O)[C@H](Cc1ccccc1)NC(=O)[C@H](CCC(=O)O)NC(=O)[C@H](C)NC(=O)[C@H](C)NC(=O)[C@H](CCCNC(=N)N)NC(=O)[C@H](CCCNC(=N)N)NC(=O)[C@@H](NC(=O)[C@H](CC(=O)O)NC(=O)[C@H](CC(C)C)NC(=O)[C@H](Cc1ccc(O)cc1)NC(=O)[C@H](CCCCN)NC(=O)[C@H](CO)NC(=O)[C@H](Cc1ccc(O)cc1)NC(=O)[C@H](CC(=O)O)NC(=O)[C@H](CO)NC(=O)[C@@H](NC(=O)[C@H](Cc1ccccc1)NC(=O)[C@@H](NC(=O)CNC(=O)[C@H](CCNC(C)=O)NC(=O)[C@H](CO)NC(=O)[C@@H](N)Cc1c[nH]cn1)[C@@H](C)O)[C@@H](C)O)[C@@H](C)O)C(C)C)C(=O)N[C@@H](CC(=O)O)C(=O)N[C@@H](CCC(=O)O)C(=O)O [SEQ ID NO: 595]	19
CCCC[C@H](NC(=O)[C@H](CC(C)C)NC(=O)[C@H](Cc1c[nH]c2ccccc12)NC(=O)[C@H](C)NC(=O)[C@@H](NC(=O)[C@H](Cc1ccccc1)NC(=O)[C@H](CCC(=O)O)NC(=O)[C@H](C)NC(=O)[C@H](C)NC(=O)[C@H](CCCNC(=N)N)NC(=O)[C@H](CCCNC(=N)N)NC(=O)[C@@H](NC(=O)[C@H](CC(=O)O)NC(=O)[C@H](CC(C)C)NC(=O)[C@H](Cc1ccc(O)cc1)NC(=O)[C@H](CCCCN)NC(=O)[C@H](CO)NC(=O)[C@H](Cc1ccc(O)cc1)NC(=O)[C@H](CC(=O)O)NC(=O)[C@H](CO)NC(=O)[C@@H](NC(=O)[C@H](Cc1ccccc1)NC(=O)[C@@H](NC(=O)CNC(=O)[C@H](CNC(N)=O)NC(=O)[C@H](CO)NC(=O)[C@@H](N)Cc1c[nH]cn1)[C@@H](C)O)[C@@H](C)O)[C@@H](C)O)C(C)C)C(=O)N[C@@H](CC(=O)O)C(=O)N[C@@H](CCC(=O)O)C(=O)O [SEQ ID NO: 596]	13
CCCC[C@H](NC(=O)[C@H](CC(C)C)NC(=O)[C@H](Cc1c[nH]c2ccccc12)NC(=O)[C@H](C)NC(=O)[C@@H](NC(=O)[C@H](Cc1ccccc1)NC(=O)[C@H](CCC(=O)O)NC(=O)[C@H](C)NC(=O)[C@H](C)NC(=O)[C@H](CCCNC(=N)N)NC(=O)[C@H](CCCNC(=N)N)NC(=O)[C@@H](NC(=O)[C@H](CC(=O)O)NC(=O)[C@H](CC(C)C)NC(=O)[C@H](Cc1ccc(O)cc1)NC(=O)[C@H](CCCCN)NC(=O)[C@H](CO)NC(=O)[C@H](Cc1ccc(O)cc1)NC(=O)[C@H](CC(=O)O)NC(=O)[C@H](CO)NC(=O)[C@@H](NC(=O)[C@H](Cc1ccccc1)NC(=O)[C@@H](NC(=O)CNC(=O)[C@H](CC[S+](C)[O-])NC(=O)[C@H](CO)NC(=O)[C@@H](N)Cc1c[nH]cn1)[C@@H](C)O)[C@@H](C)O)[C@@H](C)O)C(C)C)C(=O)N[C@@H](CC(=O)O)C(=O)N[C@@H](CCC(=O)O)C(=O)O (stereo partly shown) [SEQ ID NO: 598]	7
CCCC[C@H](NC(=O)[C@H](CC(C)C)NC(=O)[C@H](Cc1c[nH]c2ccccc12)NC(=O)[C@H](C)NC(=O)[C@@H](NC(=O)[C@H](Cc1ccccc1)NC(=O)[C@H](CCC(=O)O)NC(=O)[C@H](C)NC(=O)[C@H](C)NC(=O)[C@H](CCCNC(=N)N)NC(=O)[C@H](CCCNC(=N)N)NC(=O)[C@@H](NC(=O)[C@H](CC(=O)O)NC(=O)[C@H](CC(C)C)NC(=O)[C@H](Cc1ccc(O)cc1)NC(=O)[C@H](CCCCN)NC(=O)[C@H](CO)NC(=O)[C@H](Cc1ccc(O)cc1)NC(=O)[C@H](CC(=O)O)NC(=O)[C@H](CO)NC(=O)[C@@H](NC(=O)[C@H](Cc1ccccc1)NC(=O)[C@@H](NC(=O)CNC(=O)[C@H](CCCNC(C)=O)NC(=O)[C@H](CO)NC(=O)[C@@H](N)Cc1c[nH]cn1)[C@@H](C)O)[C@@H](C)O)[C@@H](C)O)C(C)C)C(=O)N[C@@H](CC(=O)O)C(=O)N[C@@H](CCC(=O)O)C(=O)O [SEQ ID NO: 599]	7
CSCC[C@H](NC(=O)[C@H](CC(C)C)NC(=O)[C@H](Cc1c[nH]c2ccccc12)NC(=O)[C@H](C)NC(=O)[C@@H](NC(=O)[C@H](Cc1ccccc1)NC(=O)[C@H](CC(=O)O)NC(=O)[C@H](C)NC(=O)[C@H](C)NC(=O)[C@H](CCCNC(=N)N)NC(=O)[C@H](CCCNC(=N)N)NC(=O)C(C)(C)NC(=O)[C@H](CC(=O)O)NC(=O)[C@H](CC(C)C)NC(=O)[C@H](Cc1ccc(O)cc1)NC(=O)[C@H](CCCCN)NC(=O)[C@H](CO)NC(=O)[C@H](Cc1ccc(O)cc1)NC(=O)[C@H](CC(=O)O)NC(=O)[C@H](CO)NC(=O)[C@@H](NC(=O)[C@H](Cc1ccccc1)NC(=O)[C@@H](NC(=O)CNC(=O)[C@H](CCC(N)=O)NC(=O)[C@H](CO)NC(=O)[C@@H](N)Cc1c[nH]cn1)[C@@H](C)O)[C@@H](C)O)C(C)C)C(=O)N[C@@H](CC(=O)O)C(=O)N[C@@H](CCC(=O)O)C(=O)O [SEQ ID NO: 600]	15

Same assay, conditions: Table 27, glucagon receptor

Compound	% activity [%]
CC(=O)NCC[C@H](NC(=O)[C@H](CO)NC(=O)[C@@H](N)Cc1c[nH]cn1)C(=O)NCC(=O)N[C@H](C(=O)N[C@@H](Cc1ccccc1)C(=O)N[C@H](C(=O)N[C@@H](CO)C(=O)N[C@@H](CC(=O)O)C(=O)N[C@@H](Cc1ccc(O)cc1)C(=O)N[C@@H](CO)C(=O)N[C@@H](CCCCN)C(=O)N[C@@H](Cc1ccc(O)cc1)C(=O)N[C@@H](CC(C)C)C(=O)N[C@@H](CC(=O)O)C(=O)NC(C)(C)C(=O)N[C@@H](CCCNC(=N)N)C(=O)N[C@@H](CCCNC(=N)N)C(=O)N[C@@H](C)C(=O)N[C@@H](C)C(=O)N[C@@H](CC(=O)O)C(=O)N[C@@H](Cc1ccccc1)C(=O)N[C@H](C(=O)N[C@@H](C)C(=O)N[C@@H](Cc1c[nH]c2ccccc12)C(=O)N[C@@H](CC(C)C)C(=O)N[C@@H](CC(C)C)C(=O)N[C@@H](CC(=O)O)C(=O)N[C@H](C(=O)NCC(=O)N1CCC[C@H]1C(=O)N[C@@H](CO)C(=O)N[C@@H](CO)C(=O)NCC(=O)N[C@@H](C)C(=O)N1CCC[C@H]1C(=O)N1CCC[C@H]1C(=O)N1CCC[C@H]1C(=O)N[C@@H](CO)C(N)=O)[C@@H](C)O)C(C)C)[C@@H](C)O)[C@@H](C)O (H-HS[Dab](Ac)GTFTSDYSKYLD[Aib]RRAADFVAWLLDTGPSSGAPPPS-NH2; N-terminus assumed)	113
CC(=O)NCC[C@H](NC(=O)[C@H](CO)NC(=O)[C@@H](N)Cc1c[nH]cn1)C(=O)NCC(=O)N[C@H](C(=O)N[C@@H](Cc1ccccc1)C(=O)N[C@H](C(=O)N[C@@H](CO)C(=O)N[C@@H](CC(=O)O)C(=O)N[C@@H](Cc1ccc(O)cc1)C(=O)N[C@@H](CO)C(=O)N[C@@H](CCCCN)C(=O)N[C@@H](Cc1ccc(O)cc1)C(=O)N[C@@H](CC(C)C)C(=O)N[C@@H](CC(=O)O)C(=O)NC(C)(C)C(=O)N[C@@H](CCCNC(=N)N)C(=O)N[C@@H](CCCNC(=N)N)C(=O)N[C@@H](C)C(=O)N[C@@H](CO)C(=O)N[C@@H](CC(=O)O)C(=O)N[C@@H](Cc1ccccc1)C(=O)N[C@H](C(=O)N[C@@H](CO)C(=O)N[C@@H](Cc1c[nH]c2ccccc12)C(=O)N[C@@H](CC(C)C)C(=O)N[C@@H](CC(C)C)C(=O)N[C@@H](CC(=O)O)C(=O)N[C@@H](CCC(=O)O)C(=O)O)C(C)C)[C@@H](C)O)[C@@H](C)O (H-HS[Dab](Ac)GTFTSDYSKYLD[Aib]RRASDFVSWLLDE-OH; N-terminus and C-terminus assumed)	54
CC(=O)NCC[C@H](NC(=O)[C@H](CO)NC(=O)[C@@H](N)Cc1c[nH]cn1)C(=O)NCC(=O)N[C@H](C(=O)N[C@@H](Cc1ccccc1)C(=O)N[C@H](C(=O)N[C@@H](CO)C(=O)N[C@@H](CC(=O)O)C(=O)N[C@@H](Cc1ccc(O)cc1)C(=O)N[C@@H](CO)C(=O)N[C@@H](CCCCN)C(=O)N[C@@H](Cc1ccc(O)cc1)C(=O)N[C@@H](CC(C)C)C(=O)N[C@@H](CC(=O)O)C(=O)NC(C)(C)C(=O)N[C@@H](CCCNC(=N)N)C(=O)N[C@@H](CCCNC(=N)N)C(=O)N[C@@H](C)C(=O)N[C@H](C(=O)N[C@@H](CC(=O)O)C(=O)N[C@@H](Cc1ccccc1)C(=O)N[C@H](C(=O)N[C@H](C(=O)N[C@@H](Cc1c[nH]c2ccccc12)C(=O)N[C@@H](CC(C)C)C(=O)N[C@@H](CC(C)C)C(=O)N[C@@H](CC(=O)O)C(=O)N[C@@H](CCC(=O)O)C(=O)O)[C@@H](C)O)C(C)C)[C@@H](C)O)[C@@H](C)O)[C@@H](C)O (H-HS[Dab](Ac)GTFTSDYSKYLD[Aib]RRATDFVTWLLDE-OH; N-terminus and C-terminus assumed)	46
